Several values for one entry are separate records, joined by “and”; a condition that tells them apart may be missing. Equal entries are not always repeated.
System: SW 1271 complex tumor spheroid viability
Assay: Anticancer human tumor SW 1271 cell line growth inhibition;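 further: spheroids exposed to agents for seven days before readout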;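 on viability, T/C: percent of DMSO vehicle control luminescence so 100% = vehicle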
Conditions: for viability, T/C: stronger effect = lower value; active means viability on the fitted dose curve at most 10% of control; inactive means the rest
Source text: Multicellular complex tumor spheroid response to DNA repair inhibitors in combination with DNA-damaging drugs
This study explores the anticancer activities of DNA-damaging drugs and inhibitors of DNA damage repair, both as single agents and in combinations. Complex tumor spheroids comprised of malignant cells, endothelial cells and mesenchymal stem cells served as an in vitro model for human solid tumors. This model system incorporates physiologically relevant features and patient-derived or established malignant cell lines with clinically relevant genetic alterations from many tumor types. Twenty-six patient-derived or established malignant cell lines were evaluated representing sarcoma, melanoma, small cell lung cancer (SCLC), non-small cell lung cancer (NSCLC), as well as bladder, ovarian and pancreatic cancers. The concentration ranges selected for each drug and investigational agent were based upon clinically achievable concentrations if the clinical Cmax of the agent was known.
Compounds. The drugs and compounds olaparib (NSC753686), talazoparib (NSC767125), berzosertib (NSC777718), elimusertib (NSC800525), nedisertib (NSC802822), VX-984 (NSC792969), AZD-1390 (NSC803789), temozolomide (NSC362856), topotecan (NSC609699), trabectedin (NSC813783), staurosporine (NSC755774), and gemcitabine (NSC613327) were obtained from the National Cancer Institute (NCI) Developmental Therapeutics Program Chemical Repository. The FDA-approved anticancer drug set is available from the Developmental Therapeutics Program at https://dtp.cancer.gov/organization/dscb/obtaining/available_plates.htm. […] The stock solutions were prepared in dimethyl sulfoxide (DMSO, Sigma-Aldrich, St. Louis, MO, cat. D2650) at 400-fold the tested concentration and stored at -70 degrees C. Prior to their use, the stock solutions were diluted in fresh medium and the final DMSO concentration in the assay was 0.25% (v/v). All drugs and investigational agents were tested over a range starting from a high concentration at or near the clinical Cmax and decreasing in half-log increments. If the clinical Cmax for an agent had not been determined, the highest concentration tested was 10 microM.
Cell Lines. The patient-derived cancer cell (PDC) lines: 156681-154-R-J1-PDC, 283228-195-R-J1-PDC, 287954-098-R-J1-PDC, 292921-168-R-J2-PDC, 349418-098-R-PDC, 425362-245-T-J1-PDC, 556581-035-R-J1-PDC, and BL0293-F563-PDC were received from the NCI Patient-Derived Models Repository (PDMR, https://pdmr.cancer.gov). The established cell lines HS-SY-2 (RRID:CVCL_8719), MPNST, and SYO-1 (RRID:CVCL_7146) were obtained from the Sloan Kettering Institute. The alveolar soft parts sarcoma cell line ASPS-1 (RRID:CVCL_S738) was established at the NCI and grown from internal seed stocks. The following established cell lines were purchased from the American Type Culture Collection (ATCC, Manassas, VA): G-401 (ATCC, cat. CRL-1441, RRID:CVCL_0270), SW982 (ATCC, cat. HTB-93, RRID:CVCL_1734), VA-ES-BJ (ATCC, cat. CRL-2138, RRID:CVCL_1785), NCI-H719 (ATCC, cat. CRL-5837, RRID:CVCL_1582), NCI-H196 (ATCC, cat. CRL-5823, RRID:CVCL_1509), NCI-H841 (ATCC, cat. CRL-5845, RRID:CVCL_1595), NCI-H1618 (ATCC, cat. CRL-5879, RRID:CVCL_1480), NCI-H1876 (ATCC, cat. CRL-5902, RRID:CVCL_1503), DMS 114 (ATCC, cat. CRL-2066; RRID:CVCL_1174), NCI-H211 (ATCC, cat. CRL-5824; RRID:CVCL_1529), and SW 1271 (ATCC, cat. CRL-2177, RRID:CVCL_1716). The small cell lung cancer cell line COR-L88 was purchased from Sigma-Aldrich (cat. 92031917-1VL, RRID:CVCL_1141). The non-small cell lung cancer cell lines NCI-H226 (RRID:CVCL_1544) and NCI-H322M (RRID:CVCL_1557) were established at the NCI and grown from internal seed stocks. Pooled donor human umbilical vein endothelial cells (HUVEC, Lonza, cat. CC-2519) and human mesenchymal stem cells (hMSC, Lonza, cat. PT-2501) were purchased from Lonza (Walkersville, MD).
Cell Culture. All cells were maintained in an incubator at 37 degrees C and 5% CO2 with 95% humidity. […]

[1] = curve of first compound, second compound 30 pM
[2] = curve of first compound, second compound 94.9 pM
[3] = curve of first compound, second compound 0.0003 µM
[4] = curve of first compound, second compound 0.000949 µM
[5] = curve of first compound, second compound 0.003 µM

Cc1cc(C)c(CNC(=O)c2cc(-c3ccc(CN4CCOCC4)cc3)cc3c2cnn3C2CCCC2)c(=O)[nH]1 + COc1cc2c(cc1O)CCNC21CSC2c3c(OC(C)=O)c(C)c4c(c3C(COC1=O)N1C(O)C3Cc5cc(C)c(OC)c(O)c5C(C21)N3C)OCO4
987 nM: IC50 [2]
> 10000 nM: IC50 [1]
< 31.6 nM: IC50 [3] | IC50 [4] | IC50 [5]
active: viability, T/C (second compound 0.000949 µM, first compound 0.0316 µM) 2.96% | viability, T/C (second compound 0.000949 µM, first compound 0.1 µM) 14.8% | viability, T/C (second compound 0.000949 µM, first compound 0.316 µM) 2.88% | viability, T/C (second compound 0.000949 µM, first compound 1 µM) 3.26% | viability, T/C (second compound 0.000949 µM, first compound 3.16 µM) 1.94% | viability, T/C (second compound 0.000949 µM, first compound 10 µM) 1.96% | viability, T/C (second compound 0.003 µM, first compound 0.0316 µM) 0.23% | viability, T/C (second compound 0.003 µM, first compound 0.1 µM) 0.24% | viability, T/C (second compound 0.003 µM, first compound 0.316 µM) 0.28% | viability, T/C (second compound 0.003 µM, first compound 1 µM) 0.25% | viability, T/C (second compound 0.003 µM, first compound 3.16 µM) 0.21% | viability, T/C (second compound 0.003 µM, first compound 10 µM) 0.29%
inactive: viability, T/C (second compound 30 pM, first compound 0.0316 µM) 86.2% | viability, T/C (second compound 30 pM, first compound 0.1 µM) 92.9% | viability, T/C (second compound 30 pM, first compound 0.316 µM) 90.4% | viability, T/C (second compound 30 pM, first compound 1 µM) 87.4% | viability, T/C (second compound 30 pM, first compound 3.16 µM) 84.5% | viability, T/C (second compound 30 pM, first compound 10 µM) 66.2% | viability, T/C (second compound 94.9 pM, first compound 0.0316 µM) 59.6% | viability, T/C (second compound 94.9 pM, first compound 0.1 µM) 63.3% | viability, T/C (second compound 94.9 pM, first compound 0.316 µM) 66.6% | viability, T/C (second compound 94.9 pM, first compound 1 µM) 49.8% | viability, T/C (second compound 94.9 pM, first compound 3.16 µM) 40.7% | viability, T/C (second compound 94.9 pM, first compound 10 µM) 34.4% | viability, T/C (second compound 0.0003 µM, first compound 0.0316 µM) 32.9% | viability, T/C (second compound 0.0003 µM, first compound 0.1 µM) 35.7% | viability, T/C (second compound 0.0003 µM, first compound 0.316 µM) 34.1% | viability, T/C (second compound 0.0003 µM, first compound 1 µM) 30.3% | viability, T/C (second compound 0.0003 µM, first compound 3.16 µM) 29.3% | viability, T/C (second compound 0.0003 µM, first compound 10 µM) 24%

Cc1cc(C)c(CNC(=O)c2cc(-c3ccc(CN4CCOCC4)cc3)cc3c2cnn3C2CCCC2)c(=O)[nH]1
> 10000 nM: IC50 (curve of compound)
inactive: viability, T/C (compound 0.0316 µM) 99.2% and 98.8% and 97.6% | viability, T/C (compound 0.1 µM) 95.9% and 99.6% and 92.9% | viability, T/C (compound 0.316 µM) 96.5% and 95.6% and 98.5% | viability, T/C (compound 1 µM) 94.5% and 91.5% and 91.4% | viability, T/C (compound 3.16 µM) 98.9% and 85.2% and 85.7% | viability, T/C (compound 10 µM) 85.4% and 73% and 66.3%

O=C(c1cc(Cc2n[nH]c(=O)c3ccccc23)ccc1F)N1CCN(C(=O)C2CC2)CC1 + COc1cc2c(cc1O)CCNC21CSC2c3c(OC(C)=O)c(C)c4c(c3C(COC1=O)N1C(O)C3Cc5cc(C)c(OC)c(O)c5C(C21)N3C)OCO4
active: viability, T/C (second compound 0.0003 µM, first compound 30 µM) 3.66% | viability, T/C (second compound 0.000949 µM, first compound 0.0949 µM) 4.23% | viability, T/C (second compound 0.000949 µM, first compound 0.3 µM) 5.88% | viability, T/C (second compound 0.000949 µM, first compound 0.949 µM) 3.15% | viability, T/C (second compound 0.000949 µM, first compound 3 µM) 1.8% | viability, T/C (second compound 0.000949 µM, first compound 9.49 µM) 1.43% | viability, T/C (second compound 0.000949 µM, first compound 30 µM) 0.13% | viability, T/C (second compound 0.003 µM, first compound 0.0949 µM) 0.19% | viability, T/C (second compound 0.003 µM, first compound 0.3 µM) 0.19% | viability, T/C (second compound 0.003 µM, first compound 0.949 µM) 0.12% | viability, T/C (second compound 0.003 µM, first compound 3 µM) 0.13% | viability, T/C (second compound 0.003 µM, first compound 9.49 µM) 0.15% | viability, T/C (second compound 0.003 µM, first compound 30 µM) 0.21%
inactive: viability, T/C (second compound 30 pM, first compound 0.0949 µM) 87.3% | viability, T/C (second compound 30 pM, first compound 0.3 µM) 70.1% | viability, T/C (second compound 30 pM, first compound 0.949 µM) 57.6% | viability, T/C (second compound 30 pM, first compound 3 µM) 36.5% | viability, T/C (second compound 30 pM, first compound 9.49 µM) 25.3% | viability, T/C (second compound 30 pM, first compound 30 µM) 11.8% | viability, T/C (second compound 94.9 pM, first compound 0.0949 µM) 54.3% | viability, T/C (second compound 94.9 pM, first compound 0.3 µM) 53.6% | viability, T/C (second compound 94.9 pM, first compound 0.949 µM) 31.2% | viability, T/C (second compound 94.9 pM, first compound 3 µM) 29.9% | viability, T/C (second compound 94.9 pM, first compound 9.49 µM) 28.6% | viability, T/C (second compound 94.9 pM, first compound 30 µM) 11.7% | viability, T/C (second compound 0.0003 µM, first compound 0.0949 µM) 28% | viability, T/C (second compound 0.0003 µM, first compound 0.3 µM) 35.6% | viability, T/C (second compound 0.0003 µM, first compound 0.949 µM) 32.8% | viability, T/C (second compound 0.0003 µM, first compound 3 µM) 31.1% | viability, T/C (second compound 0.0003 µM, first compound 9.49 µM) 24.2%
206 nM: IC50 [2]
1360 nM: IC50 [1]
< 94.9 nM: IC50 [3] | IC50 [4] | IC50 [5]

From PubChem BioAssay AID1845215 (Molecular Pharmacology Branch, DTP, NCI, 2023)
